This data set in a line: Human HepG2 cell viability assay in 384 well format. In kind it is toxicity, cell-based. Set-up: dose 125 nL, time 70.5 hour; cytotoxicity at 70.5 h: concentration not given beside the values. The settings on record: HepG2 cells, read-out: Inhibition.
For the molecule `Cc1cc(C)cc(N2CCN(C(=O)CCN3C[C@@H]4CC[C@H]3C4)CC2=O)c1`, the cytotoxicity at 70.5 h is -11.2%.
The same measure for `CCC(C)N(Cc1ccncc1)Cc1ccccc1Cn1cccn1` (configuration not stated): -11.3%; for `CN(Cc1nc(Cc2cccc(F)c2)no1)C1CCOCC1`: -13.9%.
Under `CCO[C@H]1COC[C@@H]1NC(=O)CCc1nc(-c2ccccc2)no1` stands -8.01%; under `CS(=O)(=O)N1CCC(c2nccn2Cc2ccccn2)CC1`, -5.19%.
Under `C=C1C(C)(C)[C@H]2CC[C@]1(C(=O)N1CCC(Cn3cc(CO)nn3)CC1)C2` stands 26.1%; under `O=C(CN1CCOc2ccccc2C1)N1Cc2cnn(CCO)c2C1`, -0.755%.
For `CC(O)C(=O)N1CCC(c2[nH]ncc2-c2ccccc2)CC1` (configuration not stated), the cytotoxicity at 70.5 h was determined as 20.2%.
Under `CCN(CC)CCN(C)Cc1cn(C)nc1-c1ccc2c(c1)OCCO2` stands 23.5%; under `Cc1n[nH]c(C)c1CCN(C)c1ccc(-c2nc(C3CC3)no2)cn1`, 4.49%; under `Cc1cc(N2CCC(c3ncc[nH]3)CC2)cc(C)n1`, -3.01%.
Under `CC(C)S(=O)(=O)N1CCCC(c2nccn2Cc2cccnc2)C1` (configuration not stated) stands -8.01%; under `Cn1ccnc1CNc1nccc(-c2ncnn2C)n1`, -14.8%; under `Cc1ccc(C(C(=O)NCCc2nc(C)cc(=O)[nH]2)N(C)C)cc1` (configuration not stated), 7.05%.
Regarding `Cn1cc(C2=CCN(CCCC(=O)Nc3ccc(C#N)cc3)CC2)cn1`, the cytotoxicity at 70.5 h is 18.4%.
The same measure for `Cc1nc2c(C(=O)O)cccc2n1-c1ccc(C(=O)N2CCCC2)o1`: 7.08%.
The same measure for `CCn1nc(C)c(CNC(=O)C2COc3ccccc3C2)c1C` (configuration not stated): -8.01%.
The same measure for `NC(=O)[C@H]1CCCN1C(=O)c1csc(-c2ccc(C(F)(F)F)cc2)n1`: -6.09%; for `Cc1ccc(-c2ccnc(N(C)CC3CCCN3C)n2)c(C)n1` (configuration not stated): 16.3%; for `Cc1cc(F)ccc1C(=O)N1CCN(C)C2(CCC(=O)N(C)CC2)C1` (configuration not stated): -9.21%.
`CCc1ccc(CN(Cc2ccccc2)CC(C)CO)nc1` (configuration not stated): the cytotoxicity at 70.5 h was -6.55%.
The same measure for `c1ccc(C2CCCCN2Cc2nc(-c3cnccn3)no2)nc1` (configuration not stated): -1.69%.
The same measure for `O=C(NCCC1=CCCCC1)c1cc(-c2ccc(O)cc2)n[nH]1`: -1.77%; for `CCN1CCN(C(=O)c2ccc3c(c2)OCC(=O)N3)[C@H]2CS(=O)(=O)C[C@H]21`: -12.3%; for `Cc1cc(C)c(C(=O)N2CCCC(O)(CN3CCCC3)C2)cc1C` (configuration not stated): -4.19%.
With `CC(=O)NCCc1ncnn1-c1ccc(F)c(Cl)c1`, the cytotoxicity at 70.5 h is 7.55%.
For the molecule `Cc1nn(C)c(C)c1CN1CCCC(c2ccc(C(=O)O)cc2)C1` (configuration not stated), the cytotoxicity at 70.5 h was -3.35%.
With `Cc1nc[nH]c1C(=O)N1CCCC2(C1)C(=O)N(C)c1ccccc12` (configuration not stated), the cytotoxicity at 70.5 h is -3.87%.
For the molecule `COc1cccc(CN2CCN(c3cccc(C(C)C)n3)CC2)c1F`, the cytotoxicity at 70.5 h was -0.272%.
The same measure for `CC(C)[C@H]1CN(Cc2nccn2C)C[C@@H]1NC(=O)COCC(N)=O`: -9.51%; for `NCC1Cc2cc(-c3nccc(N4CCC(O)CC4)n3)cc(Cl)c2O1` (configuration not stated): 5.41%.
Under `CCN(Cc1nc(COC)no1)C(=O)CCn1c(C)cc2ccccc21` stands -0.00353%.
The same measure for `CCC[C@@H]1CN(Cc2ccc(N(C)C)nc2)C[C@H]1N(C)C`: -9.01%.
On to `Cc1cc(CC(C)Nc2ncnc3cccc(F)c23)[nH]n1` (configuration not stated), for which the cytotoxicity at 70.5 h came out at 2.32%.
Under `O=C(NCCc1noc(C2CCCC2)n1)c1cn2ccsc2n1` stands -6.72%; under `Nc1nc2c(c(NCc3ccncc3)n1)CCCC2`, 0.39%.
For the molecule `COc1ccc2c(c1)OCC(CNC(=O)c1ccc3[nH]nnc3c1)C2` (configuration not stated), the cytotoxicity at 70.5 h is -9.44%.
Under `Cc1n[nH]c(C)c1CC(=O)N1CCC2(CC1)CN(C)CCN2C` stands 23.4%.
Under `CCN1CC(C(=O)NCCCc2nc(C)c(C)s2)CC1=O` (configuration not stated) stands -9.75%; under `Cc1nc2c(c(N3CC=CC3)n1)CCN(c1ncccc1C(N)=O)CC2`, -2.97%.
As to `COCc1cc(N2CCN(C3CCCCC3)CC2)n2nccc2n1`, the cytotoxicity at 70.5 h is -4.81%.
Under `CCC(CO)N(C/C(C)=C/c1ccco1)Cc1ccccn1` (configuration not stated) stands -6%; under `Cc1ccc(-c2cnnc(N3CCCC3c3nonc3C)n2)o1` (configuration not stated), -3.66%.
Under `OC1(CNCCN2CCCc3ccccc32)CCNC1` (configuration not stated) stands -11.6%; under `Cc1n[nH]c(C)c1CN(C)C(C(=O)O)c1c(F)cccc1OC(C)C` (configuration not stated), -4.07%.
For `COCc1ncn(Cc2nc(-c3ccc(OC)cc3F)oc2C)n1`, the cytotoxicity at 70.5 h amounted to 51.2%.
The same measure for `CC(C)n1cc(C(=O)NCCCc2csc(N)n2)cn1`: -9.21%; for `CCc1cc(NC2CCS(=O)(=O)C2)nc(N2CCCCC2)n1` (configuration not stated): -3.25%; for `CN1CCc2[nH]cnc2C12CCN(C(=O)CCc1cccs1)CC2`: 16.8%.
Under `CCc1nccn1CCNC1CCN(c2nc3ccc(Cl)cc3s2)CC1` stands 40.5%.
Turning to `Cc1c(CN2CCc3[nH]cnc3C2C(=O)O)[nH]c2ccc(F)cc12` (configuration not stated), the cytotoxicity at 70.5 h is -20.3%.
Under `CSc1ccc(-c2nc(CN3CCC(C(N)=O)CC3)c(C)o2)cc1` stands -6.77%; under `CCCNC(=O)N1CCc2ccc(S(=O)(=O)N3CCN(C)CC3)cc2C1`, -16.2%.
Turning to `Cc1cc(C)c2ncn(CC(C)(C)CO)c(=O)c2c1`, the cytotoxicity at 70.5 h is -6.8%.
The same measure for `COc1ccc(Cl)cc1CN(C)C(=O)CN1C(=O)OC[C@@H]1C(C)C`: -6.97%; for `Cc1ccnn1CCC(=O)N1CCN(C2CCc3ccccc3C2)CC1` (configuration not stated): -12.6%.
The same measure for `CCC(Nc1nc(C2CCCC2)nc2c1cnn2C)c1ccncc1` (configuration not stated): 8.01%.
On to `CCCc1ccc(C(C)Nc2ncnc3c2CCNC3)cc1` (configuration not stated), for which the cytotoxicity at 70.5 h is -2.09%.
Under `CS(=O)(=O)CC1CCCN(C(=O)Cn2cccc(C(F)(F)F)c2=O)C1` (configuration not stated) stands 6.87%.
The same measure for `CCCc1nc(CN(CC)Cc2ccc(O)c(C(=O)O)c2)no1`: -8.69%.
As to `Cc1cnn(CCCn2ncc(N3CCC(CN)C3)cc2=O)c1` (configuration not stated), the cytotoxicity at 70.5 h amounted to 9.78%.
As to `O=C(CCN1CCCCO1)NCc1cn2c(n1)SCC2`, the cytotoxicity at 70.5 h was -0.977%.
Turning to `CN(C)S(=O)(=O)NC1CCCc2c1cnn2-c1ccc(C(C)(C)C)cc1` (configuration not stated), the cytotoxicity at 70.5 h was -2.4%.
Under `Cc1cn(CC(=O)Nc2cc(C(C)(C)C)nn2C)cn1` stands -5.53%; under `CCc1[nH]c2c(CNc3nccc(N)n3)cc(C)cc2c1C`, 23.9%; under `Cc1cc(N2Cc3cnc(CC(C)C)nc3C2)nc(N)n1`, 0.669%.
Under `CCN(C)C[C@@H]1CN(C(=O)c2cc(C(F)(F)F)n[nH]2)C[C@@H]1CO` stands -10%; under `O=C(CCCNCc1ccccc1)N1CCCn2cncc2C1`, -4.58%; under `CCCc1nc(N2CCCN(c3ccncc3)CC2)c2cnn(C)c2n1`, -11.6%.
As to `CSc1nc(N)cc(N2C[C@@H]3CC[C@H](C2)N(Cc2cscn2)C3=O)n1`, the cytotoxicity at 70.5 h amounted to 7.64%.
The same measure for `CCc1nc(CCn2cc(-c3nccn3C)nn2)no1`: -9.68%; for `Cc1n[nH]c(CN2CCN(C(=O)C3CCC3)[C@@H]3CS(=O)(=O)C[C@@H]32)n1`: 0.743%.
Under `COc1ccc(-c2noc(-c3ccc(N4CCC[C@H]4CO)nc3)n2)cc1` stands 10.2%.
For the molecule `Cc1ccnn1CC(=O)N(C)Cc1ccc(-n2cccn2)cc1`, the cytotoxicity at 70.5 h was -7.33%.
Under `N[C@H]1CN(C(=O)c2ccc3[nH]c(=O)c(=O)[nH]c3c2)C[C@@H]1c1ccccc1` stands -16.1%.
For the molecule `Cc1[nH]nc(CCC(=O)N2CCc3c(nc[nH]c3=O)C2)c1C`, the cytotoxicity at 70.5 h was -15.9%.
The same measure for `OCCC[C@@H]1CN(c2ncc(Cl)cc2Cl)CC[C@@H]1N1CCOCC1`: 3.21%.
The same measure for `CN(C)CCN1CC(C(=O)N2CCC(c3cccc(O)c3)CC2)CC1=O` (configuration not stated): 2.7%; for `CC(C)(C)N1CC(C(=O)NCc2cn3cccnc3n2)CC1=O` (configuration not stated): -5.98%; for `Cc1cc(NC2CCC(=O)N(C)C2)n2nccc2n1` (configuration not stated): -9.21%.
For `CN1CCNC(=O)C12CCN(C(=O)c1ccc3[nH]c(=O)[nH]c3c1)CC2`, the cytotoxicity at 70.5 h is -7.66%.
`c1ccc(CCN2CCN(C3CCOC4(CCOCC4)C3)CC2)nc1` (configuration not stated): the cytotoxicity at 70.5 h is -9.08%.
The same measure for `CCN(CC)CCC(=O)N1CCc2c(nc(N(C)C)nc2N(C)C)C1`: 29.3%; for `CCCc1nc(C)cc(NC(C)Cc2cnccn2)n1` (configuration not stated): -10.8%.
The same measure for `CCOCCNCc1cc(O)c2cc(C)ccc2n1`: -5.02%.
For `Cn1ncc(N2CCOC(CCNC(=O)CO)C2)cc1=O` (configuration not stated), the cytotoxicity at 70.5 h was determined as 13.3%.
The same measure for `COCCN1CCN(Cc2cccnc2)[C@H]2CS(=O)(=O)C[C@H]21`: 21.4%; for `COCCN1CCCC2(CCN(c3nc(C)nc4ccsc34)C2)C1=O` (configuration not stated): -11.8%; for `COc1cccn(CC(=O)N2CCCC3(CCOCC3)C2)c1=O`: -1.15%.
The same measure for `Cc1cc(-c2nccn2CCN2CCCCC2CO)oc1C` (configuration not stated): -5.85%.
The same measure for `O=C(c1ncc[nH]1)N1CCC(n2cc(-c3ccccn3)nn2)CC1`: 0.522%; for `CCN(C)C[C@@H]1CN(S(=O)(=O)c2cccc(C#N)c2)C[C@@H]1CO`: -5.18%.
Take `O=C(NCc1ccc2c(c1)CCCO2)C1CNCCO1` (configuration not stated): the cytotoxicity at 70.5 h was found to be 48.5%.
Under `CN1C[C@@H](N)C[C@H]1C(=O)N1CCC(Cc2ccc(F)cc2)CC1` stands 0.737%.
In the case of `COCc1noc(CN2CCCCC2CCc2cccs2)n1` (configuration not stated), the cytotoxicity at 70.5 h was -14.8%.
The same measure for `CCCOC1CCCN(c2nc(CC)nc3c2cnn3C)C1` (configuration not stated): -10.7%; for `N[C@@H]1CC[C@H](C(=O)NCc2ccc3nonc3c2)C1`: -13.2%.

The record behind these values is ChEMBL document CHEMBL3507680, “University of Dundee, Gates Library screen for HepG2 cell viability”.
